# Test results reported in patent US8834843B2, “Imaging method” (GE Healthcare Limited, priority 2007, dated 2014).
# Numbered stars: 1 amine (or outer) side, 2 acyl side, 3 side chain; on linkers, the order of the positions; unused ones are H or OH. Bridge positions count the residues as written; N and C are the ends. Side chains are listed from the residue outwards. Peptide text beside a SMILES is read from it. * marks the point of attachment. X1 = C/C(=N\O)C(C)(C)NCCC(CCNC(C)(C)/C(C)=N/O)CCN*; Glutaryl = O=C(CCCC(=O)[*:2])[*:1]; X2 = NC(=O)COCC(=O)NCCOCCOCCOCCN*
# Key:
# [1] = test system: Integrins on Stellate Cell Membranes; assay: Binding to integrins on stellate cell membranes (125I-echistatin competition); parameters: species or system rat; conditions: cold compound vs 125I-echistatin, 37° C. for 60 min; read-out: Ki in the activated stellate cell membrane assay
# Protocol: An activated rat liver stellate cell line (immortalized) was a kind gift from Professor Trond Berg at University of Oslo. The cells were grown in 150 mm culture flasks to confluence in Dulbeccos modified Eagels medium containing 10% FBS, glutamine and Penicillin/Streptomycin.
# The cells were washed twice in ice cold PBS, pH 7.4, added 10 ml PBS and scraped off with a rubber policeman and transferred to a 50 ml vial on ice. Another 10 ml PBS were added to the flasks, scraped and combined with the first cells. The cells were centrifuged at 2000 rpm at 4° C. for 10 min. The supernatant was poured off and the pellet resuspended in 3 ml PBS. All pellets were combined into one tube, centrifuged as above and the final pellet frozen at −70° C. immediately.
# The cell pellets were resuspended in ice-cold homogenization buffer (10 times the amount of cells, for example 2 g pellet to 20 ml homogenization buffer) containing 50 mM Tris-HCl, 5 mM MgCl2, 1 mM EGTA, pH7.4 and in addition protease inhibitors 10 ug/ml leupeptin, 10 ug/ml pepstatin, 200 ug/ml Bacitracin, 0.5 ug/ml aprotinin and 100 uM PMSF. […]
# An experiment was set up in a 96-well plate. […] This filterspot was cut off and added a tube that finally was counted in a gamma-counter. […]
# [2] = test system: αv integrin; assay: Liver uptake vs alpha-v integrin expression (ELISA) in BDL rat liver; format: in vivo; conditions: BDL animals
# Protocol: The BDL and sham animal models were set up as described in Example 3. At each of 2, 15 and 28 days post-operatively, ˜3 MBq Compound 8 was administered to animals and the liver uptake assessed as described in Example 3.
# The expression of αv integrin in the animals' livers was measured in homogenised livers of BDL- and sham-operated animals. At each of 2, 15 and 28 days post-operatively, animals were sacrificed and their livers removed and stored at −70° C.
# Pre-weighed livers were removed from −70° C. freezer and placed into pre-cooled mortar and pestle in the presence of low amount of liquid nitrogen. Liver was crushed to almost a homogenous powder (during the crushing of the liver a small amount of liquid nitrogen was added to keep the tissue frozen at all times). […]
# The homogenate was transferred into a pre-chilled glass tissue Dounce and three up and down strokes of the pestle were applied at 4° C. […] Relative protein concentration was determined in each sample using a commercial protein assay kit with BSA standards according to the manufacturer's instruction (Pierce, USA) (BSA aliquots should be made in modified RIPA buffer that was used for the homogenisation). Supernatant from each sample was further diluted between 1:50 and 1:200 in H2O and protein concentration was determined using a […] multi-well Plate reader (iEMS). […]
structure (smiles),measurement,setting,value
C/C(=N\O)C(C)(C)NCCC(CCNC(=O)CCCC(=O)NCCCC[C@@H]1NC(=O)CSC[C@@H](C(=O)NCCOCCOCCOCCNC(=O)COCC(N)=O)NC(=O)[C@H](Cc2ccccc2)NC(=O)[C@@H]2CSSC[C@H](NC1=O)C(=O)N[C@@H](CCCNC(=N)N)C(=O)NCC(=O)N[C@@H](CC(=O)O)C(=O)N2)CCNC(C)(C)/C(C)=N/O (some centres unmarked) [Compound 8] ({CH2CO}-K([Glutaryl-X1])CRGDCFC-X2; disulfide 2-6; thioether N-8),Ki,[1],56 nM
same,Correlation of αv integrin expression with liver uptake (in words),[2],correlation
